Structures can show the parent of a compound that is named as a salt.

The term Ki denotes a measure of affinity in units of concentration, obtained from inhibition or displacement. A higher Ki goes with a looser hold on the target.

The target in this test is GABAa receptor. Briefly: GABAa receptor activity: inhibition of 3H-RO15-1788 (3H-Flumazenil) binding to rat cortical tissue. Particulars: 0.5 nM 3H-RO15-1788, 30 min at 4° C. As for the experimental part:
The pharmaceutical utility of compounds of this invention are indicated by the following assay for GABAa receptor activity.
The assay is carried out as described in Thomas and Tallman (J. Bio. Chem. 156: 9838-9842, J. Neurosci. 3:433-440, 1983). Rat cortical tissue is dissected and homogenized in 25 volumes (w/v of 0.05M Tris HCl buffer (pH 7.4 at 4° C.). The tissue homogenate is centrifuged in the cold (4° C.) at 20,000×g for 20 minutes. The supernatant is decanted and the pellet is rehomogenized in the same volume of buffer and again centrifuged at 20,000×g. The supernatant is decanted and the pellet is frozen at -20° C. overnight. The pellet is then thawed and rehomogenized in 25 volume (original w/v) of buffer and the procedure is carried out twice. The pellet is finally resuspended in 50 volumes (w/v) of 0.05M Tris HCl buffer (pH 7.4 at […]).
Incubation contain 100 of tissue homogenate, […] of radioligand (0.5 nM ^3 H-RO15-1788 [^3 H-Flumazenil] specific activity 80 Ci/mmol), drug or blocker and buffer to a total volume of […]. Incubstion are carried for 30 min at 4° C. then are rapidly filtered through GFB filters to separate free and bound ligand. Filters are washed twice with fresh 0.05M Tris HCl buffer (pH 7.4 at 4° C.) and counted in a liquid scintillation counter. 1.0 mM diazepam is added to some tubes to determine nonspecific binding. Data are collected in triplicate determinations, averaged and % inhibition of total specific binding is calculated. Total Specific Binding=Total-Nonspecific. In some case, the amounts of unlabeled drugs is varied and total displacement curves of binding are carried. Data are converted to a form for the calculation of Ki and Hill Coefficient (nH).
In turn, `CCn1c(=O)n2c(-c3ccccc3F)ncc2c2ccccc21` [Compound 76, 3-(2-Fluorophenyl)-5,6-dihydro-5-oxo-6-ethyl-imidazo[1,5-c]quinazoline] displayed a Ki of 124 nM. For `COc1ccc(-c2ncc3n2CN(C(=O)N(C)C)c2ccccc2-3)cc1` [Compound 2, 3-(4-Methoxyphenyl)-5,6-dihydro-6-[(N,N-dimethyl-amino)carbonyl]imidazo[1,5-c]quinazoline hydrochloride] the value was 4.7 nM; for `COc1ccc(-c2ncc3n2CN(C(=O)c2ccccc2)c2ccccc2-3)c(F)c1` [Compound 72, 3-(2-Fluoro-4-methoxyphenyl)-5,6-dihydro-6-benzoyl-imidazo[1,5-c]quinazoline], 9.7 nM. For `COc1ccc(-c2ncc3n2CN(C(=O)c2ccccc2)c2ccccc2-3)cc1` [Compound 53, 3-(4-Methoxyphenyl)-5,6-dihydro-6-benzoylimidazo-[1,5-c]quinazoline] the value was 7.8 nM. The result for `COc1cccc(-c2ncc3n2CN(C(=O)N2CCCCC2)c2ccccc2-3)c1` [Compound 16, 3-(3-Methoxyphenyl)-5,6-dihydro-6-[(1-piperidino)-carbonyl]imidazo[1,5-]quinazoline hydrochloride] reads 17 nM; that for `COc1ccc(-c2ncc3n2CN(C(=O)N2CCOCC2)c2ccccc2-3)cc1` [Compound 3, 3-(4-Methoxyphenyl)-5,6-dihydro-6-[(1-morpholino)-carbonyl]imidazo[1,5-c]quinazoline hydrochloride], 2.7 nM. As to `COc1ccc(-c2ncc3n2CN(C(=O)N2CCCCC2)c2ccccc2-3)cc1` [Compound 1, 3-(4-methoxyphenyl)-5,6-dihydro-6-[(1-piperidino)carbonyl]imidazo[1,5-c]quinazoline], the Ki stood at 6 nM. For `O=C(N1CCCCCC1)N1Cn2c(cnc2-c2ccccc2)-c2ccccc21` [Compound 18, 3-Phenyl-5,6-dihydro-6-[(1-hexamethyleneimino)-carbonyl]imidazo[1,5-c]quinazoline hydrochloride] the value was 12 nM; for `COc1ccc(-c2ncc3n2CN(C(C)=O)c2ccccc2-3)cc1` [Compound 49, 3-(4-methoxyphenyl)-5,6-dihydro-6-acetylimidazo[1,5-c]-quinazoline], 101 nM.

(Values after patent publication US5792766A (priority 1996, dated 1998).)
